Patent US9631041B2, “PH-sensitive compositions for delivery of beta lapachone and methods of use” (The Board of Regents of the University of Texas System, priority 2010, dated 2017)
Values after ≈ are worked out from the molar mass of the structure shown. Read-outs that look alike come from different tables or passages of the source.

How the values were obtained:
[1] = Prodrug hydrolysis / conversion into β-lap by HPLC at different pH; format: physicochemical; details: for pH sensitivity of hydrolysis: hydrolysis study at neutral pH and acidic pH; for half-life at 5 μmol/mL: acetonitrile/buffered solution (30:70, v/v)
Experimental: The HPLC system consisted of a quaternary pump, a vacuum degasser, an autosampler, a C18 column (4.6 mm×250 mm, Agilent, CA) and UV detector at 254 nm (Perkin Elmer, MA, USA). The mobile phase was acetonitrile/water (60:40) and a flow rate of 1.0 mL/min was used.

A549 cells = experiment: Cytotoxicity assay, long-term relative survival by DNA content; format: cell-based, human
Experimental: Long-term, relative survival was assessed based on DNA content as described (Pink, J. J., Planchon, S. M., Tagliarino, C., Varnes, M. E., Siegel, D., and Boothman, D. A. (2000) NAD(P)H:Quinone oxidoreductase activity is the principal determinant of beta-lapachone cytotoxicity. J. Biol. Chem. 275, 5416-24). Briefly, A549 cells were seeded at 5×10^3/well in 48-well dishes a day before experiments. Cells were then mock-treated or exposed to various doses of β-lap or β-lap prodrug (6) conjugated micelles for preferred time in the presence or absence of dicoumoral (40 μM) as indicated. Subsequently, cells were replenished with drug-free medium and allowed to grow for 5-7 days until control cells reached ˜100% confluence. DNA content was determined by Hoechst 33258 staining and fluorescence detection using a plate reader (Perkin-Elmer, Boston, Mass.). Results were graphed as means±SE from sixtuplicate. Independent experiments were repeated at least three times. DIC is a specific NQO1 inhibitor and used to block β-Lap induced cytotoxicity.

NQO1 = NQO1 (Homo sapiens, UniProt P15559); details: upon NQO1 bioactivation, futile cycle; cited from earlier work
Chain of NQO1 (P15559 whole entry): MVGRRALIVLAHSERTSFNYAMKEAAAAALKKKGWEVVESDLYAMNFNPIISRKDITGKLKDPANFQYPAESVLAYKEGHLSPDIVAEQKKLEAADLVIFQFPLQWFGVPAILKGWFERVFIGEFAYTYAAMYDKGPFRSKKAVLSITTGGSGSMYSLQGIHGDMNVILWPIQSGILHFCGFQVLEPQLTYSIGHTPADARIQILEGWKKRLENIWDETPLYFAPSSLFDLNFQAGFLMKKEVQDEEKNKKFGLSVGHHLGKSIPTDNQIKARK

[2] = inclusion complex with hydroxylpropyl β-cyclodextrin; cited from earlier work
[3] = free drug; cited from earlier work

CC1(C)CCc2c(c3ccccc3c3nc(CCCCO)oc23)O1 [(4), 4-(6,6-dimethyl-5,6-dihydro-4H-benzo[7,8]chromeno[6,5-d]oxazol-2-yl)butan-1-ol]
pH sensitivity of hydrolysis [1]: resisted acid catalyzed hydrolysis

Cc1cc2nc3c(oc-2cc1=O)c1c(c2ccccc23)OC(C)(C)CC1 [(5), 3,3,11-trimethyl-2,3-dihydrobenzo[a]pyrano[2,3-c]phenoxazin-12(1H)-one]
pH sensitivity of hydrolysis [1]: resisted acid catalyzed hydrolysis

Nc1ccc(N2C(=O)C=CC2=O)cc1 [linker, N-(4-Aminophenyl)maleimide]
toxicity (A549 cells; A549, treatment up to 24 h): No toxicity

CC(=O)N/N=C1\C(=O)C2=C(OC(C)(C)CC2)c2ccccc21 [prodrug (1), (Z)—N′-(2,2-dimethyl-5-oxo-3,4-dihydro-2H-benzo[h]chromen-6(5H)-ylidene)acetohydrazide]
pH sensitivity of hydrolysis [1]: not pH-sensitive

CC1(C)CCC2=C(O1)c1ccccc1[C@]1(OC[C@@](C)(CO)CO1)C2=O [prodrug (2), (2′r,5′r)-5′-(hydroxymethyl)-2,2,5′-trimethyl-3,4-dihydrospiro[benzo[h]chromene-6,2′-[1,3]dioxan]-5(2H)-one]
pH sensitivity of hydrolysis [1]: not pH-sensitive

CC1(C)CCC2=C(O1)c1ccccc1[C@]1(OC[C@](C)(CO)CO1)C2=O [prodrug (3), (2′s,5′s)-5′-(hydroxymethyl)-2,2,5′-trimethyl-3,4-dihydrospiro[benzo[h]chromene-6,2′-[1,3]dioxan]-5(2H)-one]
pH sensitivity of hydrolysis [1]: not pH-sensitive

CC1(C)CCC2=C(O1)c1ccccc1/C(=N\c1ccc(N3C(=O)C=CC3=O)cc1)C2=O [prodrug (6), (E)-1-(4-(2,2-dimethyl-5-oxo-3,4-dihydro-2H-benzo[h]chromen-6(5H)-ylideneamino)phenyl)-1H-pyrrole-2,5-dione]
half-life at 5 μmol/mL ([1]; pH 5, pH 5.0, room temperature, read-out: half-life of conversion into β-lap, t1/2 (pH 5.0) (converted)): 1.1 h | half-life at 5 μmol/mL ([1]; pH 7.4, pH 7.4, read-out: half-life for hydrolysis, t1/2 (pH 7.4)): > 90 h | pH sensitivity of hydrolysis [1]: inspiring pH sensitivity both at neutral and at acidic conditions | prodrug converted into β-Lap ([1]; pH 5.0, after 1.5 hr): more than 50% | prodrug hydrolyzed ([1]; pH 5.0, after 10 hrs): all prodrug (6) was hydrolyzed | β-Lap released from prodrug ([1]; pH 5.0 buffer, 5 mins): only a trace | prodrug converted into β-Lap ([1]; pH 6.5, after 24 hrs): about 30% | prodrug converted into β-Lap ([1]; pH 7.4, after 24 hrs): ~3.3%

CC1(C)CCC2=C(O1)c1ccccc1C(=O)C2=O [β-lap, β-Lapachone]
moles of H2O2 and other ROS produced per mole of β-lap (NQO1): 120 mol | cytotoxicity in the presence of dicoumarol (NQO1 inhibitor) (A549 cells; A549, dicoumarol 40 μM): blocked | concentration sufficient to reach maximal cytotoxicity (A549 cells; A549 cells, within 2 hours): 5 µM | binding constant [2]: 1100 M⁻¹ | aqueous solubility [3]: 38 µg/mL (≈ 157 µM)
